Assay results reported in patent publication US20100298141A1, “SUBSTITUTED PYRIDINE N-OXIDE HERBICIDES” (E. I. DU PONT DE NEMOURS AND COMPANY, priority 2007, published 2010).

How the values were obtained:
[1] = test system: soybean; assay: Test C pre-/postemergence test; assay type: in vivo, Glycine max; settings: Preemergence
Procedure, shortened: (§1)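 Seeds were planted and treated preemergence with test chemical in a non-phytotoxic solvent mixture containing surfactant. Postemergence applications of the same formulation went onto plants 2 to 18 cm tall (1- to 4-leaf stage). A dash marks no test result.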

[2] = test system: umbrella sedge; assay: Test C flooded paddy test; assay type: in vivo, Cyperus difformis; settings: Flood
Procedure, shortened: (§2)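 In-water treatment: compound dosed into 3 cm flood over soil, water level unchanged throughout. Controls run alongside; visual assessment at day 13–15.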

[3] = test system: common (oilseed) sunflower; assay: Test C pre-/postemergence test; assay type: in vivo, Helianthus annuus; settings: Preemergence
Procedure, shortened: as §1

[4] = test system: morningglory; assay: Test A pre-/postemergence greenhouse test; assay type: in vivo, Ipomoea spp.; settings: for Morningglory plant response rating: 0 to 100 scale
Procedure, shortened: (§3)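 Test compounds in non-phytotoxic solvent with surfactant were applied as a preemergence soil spray to seeded loam/sand pots and, concurrently, postemergence to plants at 2–10 cm, one- to two-leaf stage. About ten days in greenhouse, then injury visually rated against untreated controls.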

[5] = test system: cocklebur; assay: Test C pre-/postemergence test; assay type: in vivo, Xanthium strumarium
Procedure, shortened: as §1

[6] = test system: kochia; assay: Test C pre-/postemergence test; assay type: in vivo, Kochia scoparia; settings: Preemergence
Procedure, shortened: as §1

[7] = test system: Goosegrass; assay: Test C pre-/postemergence test; assay type: in vivo, Eleusin indica; settings: Preemergence
Procedure, shortened: as §1

[8] = test system: lambsquarters; assay: Test C pre-/postemergence test; assay type: in vivo, Chenopodium album; settings: Preemergence
Procedure, shortened: as §1

[9] = test system: Surinam grass; assay: Test C pre-/postemergence test; assay type: in vivo, Brachiaria decumbens; settings: Preemergence
Procedure, shortened: as §1

[10] = test system: bermudagrass; assay: Test C pre-/postemergence test; assay type: in vivo, Cynodon dactylon
Procedure, shortened: as §1

[11] = test system: barnyardgrass; assay: Test A pre-/postemergence greenhouse test; assay type: in vivo, Echinochloa crus-galli; settings: for Barnyardgrass plant response rating: 0 to 100 scale
Procedure, shortened: as §3

[12] = test system: pigweed; assay: Test C pre-/postemergence test; assay type: in vivo, Amaranthus retroflexus; settings: Preemergence
Procedure, shortened: as §1

[13] = test system: crabgrass; assay: Test C pre-/postemergence test; assay type: in vivo, Digitaria sanguinalis; settings: Preemergence
Procedure, shortened: as §1

[14] = test system: crabgrass; assay: Test A pre-/postemergence greenhouse test; assay type: in vivo, Digitaria sanguinalis; settings: for Crabgrass, Large plant response rating: 0 to 100 scale
Procedure, shortened: as §3

[15] = test system: barnyardgrass; assay: Test C flooded paddy test; assay type: in vivo, Echinochloa crus-galli; settings: Flood
Procedure, shortened: as §2

[16] = test system: giant foxtail; assay: Test A pre-/postemergence greenhouse test; assay type: in vivo, Setaria faberi; settings: for Foxtail, Giant plant response rating: 0 to 100 scale
Procedure, shortened: as §3

[17] = test system: Italian ryegrass; assay: Test C pre-/postemergence test; assay type: in vivo, Lolium multiflorum; settings: Preemergence
Procedure, shortened: as §1

[18] = 31 g ai/ha, scale 0 to 100 (0 no effect, 100 complete control)
[19] = 62 g ai/ha, scale 0 to 100, 0 no effect, 100 complete control, 13 to 15 days
[20] = 125 g ai/ha, scale 0 to 100, 0 no effect, 100 complete control, 13 to 15 days
[21] = Postemergence, 125 g ai/ha, 0 is no effect, 100 is complete control
[22] = Postemergence, 500 g ai/ha, 0 is no effect, 100 is complete control
[23] = Preemergence, 125 g ai/ha, 0 no effect, 100 complete control
[24] = Preemergence, 500 g ai/ha, 0 to 100 scale where 0 is no effect and 100 is complete control
[25] = Preemergence, 31 g ai/ha, scale 0 to 100 (0 no effect, 100 complete control)
[26] = preemergence, 125 g ai/ha, scale 0 (no effect) to 100 (complete control)

**Q.** `Cc1cc[n+]([O-])c([S+]([O-])Cc2c(C(F)(F)F)nn(C)c2Cl)c1` (racemic) [Compound 20] was tested. Which “Soybean plant response rating” value ([1]; 62 g ai/ha, scale 0 to 100) did it give?
**A.** Its value is 0.

**Q.** What about the “Plant response rating, Soybean” value [1, 18] of the same compound?
**A.** The value was 0.

**Q.** What about the “Plant response rating, Sedge, Umbrella” value [2, 18] of the same compound?
**A.** Its value is 0.

**Q.** And the “Plant response rating, Sedge, Umbrella” value [2, 19]?
**A.** The value was 0.

**Q.** What about the “Plant response rating, Sedge, Umbrella” value [2, 20] of the same compound?
**A.** The value was 85.

**Q.** What about the “Plant response rating, Sedge, Umbrella” value ([2]; 250 g ai/ha, scale 0 to 100, 0 no effect, 100 complete control, 13 to 15 days) of the same compound?
**A.** Its value is 85.

**Q.** What about the “Sunflower plant response rating” value ([3]; 62 g ai/ha, scale 0 to 100) of the same compound?
**A.** Its value is 0.

**Q.** And the “Plant response rating, Sunflower” value [3, 18]?
**A.** The value was 0.

**Q.** And the “Morningglory plant response rating” value [4, 21]?
**A.** The value was 40.

**Q.** And the “Morningglory plant response rating” value [4, 22]?
**A.** Its value is 60.

**Q.** What about the “Morningglory plant response rating” value [4, 23] of the same compound?
**A.** The value was 70.

**Q.** What about the “Plant response rating, Morningglory” value [4, 24] of the same compound?
**A.** Its value is 80.

**Q.** What about the “Cocklebur plant response rating” value ([5]; 62 g ai/ha, Preemergence, scale 0 to 100) of the same compound?
**A.** Its value is 0.

**Q.** What about the “Plant response rating, Cocklebur” value [5, 25] of the same compound?
**A.** The value was 0.

**Q.** And the “Plant response rating (0 to 100), Cocklebur” value ([5]; Preemergence, 250 g ai/ha)?
**A.** The value was 20.

**Q.** What about the “Cocklebur plant response rating” value [5, 26] of the same compound?
**A.** The value was 0.

**Q.** And the “Kochia plant response rating” value ([6]; 62 g ai/ha, scale 0 to 100)?
**A.** The value was 100.

**Q.** What about the “Plant response rating, Kochia” value [6, 18] of the same compound?
**A.** Its value is 0.

**Q.** And the “Goosegrass plant response rating” value ([7]; 62 g ai/ha, scale 0 to 100)?
**A.** The value was 100.

**Q.** What about the “Plant response rating, Goosegrass” value [7, 18] of the same compound?
**A.** Its value is 85.

**Q.** What about the “Plant response rating (0 to 100), Goosegrass” value ([7]; 250 g ai/ha) of the same compound?
**A.** Its value is 100.

**Q.** And the “Lambsquarters plant response rating” value ([8]; 62 g ai/ha, scale 0 to 100)?
**A.** The value was 100.

**Q.** What about the “Plant response rating, Lambsquarters” value [8, 18] of the same compound?
**A.** Its value is 90.

**Q.** What about the “Surinam Grass plant response rating” value ([9]; 62 g ai/ha, scale 0 to 100) of the same compound?
**A.** The value was 70.

**Q.** And the “Plant response rating, Surinam Grass” value [9, 18]?
**A.** The value was 0.

**Q.** What about the “Bermudagrass plant response rating” value ([10]; 62 g ai/ha, Preemergence, scale 0 to 100 (0 no effect, 100 complete control)) of the same compound?
**A.** Its value is 85.

**Q.** And the “Plant response rating, Bermudagrass” value [10, 25]?
**A.** The value was 55.

**Q.** And the “Plant response rating (0 to 100), Bermudagrass” value ([10]; Preemergence, 250 g ai/ha)?
**A.** Its value is 100.

**Q.** And the “Bermudagrass plant response rating” value [10, 26]?
**A.** Its value is 100.

**Q.** What about the “Barnyardgrass plant response rating” value [11, 21] of the same compound?
**A.** The value was 40.

**Q.** What about the “Barnyardgrass plant response rating” value [11, 22] of the same compound?
**A.** Its value is 80.

**Q.** And the “Barnyardgrass plant response rating” value [11, 23]?
**A.** Its value is 70.

**Q.** And the “Plant response rating, Barnyardgrass” value [11, 24]?
**A.** The value was 100.

**Q.** What about the “Pigweed plant response rating” value ([12]; 62 g ai/ha, scale 0 to 100) of the same compound?
**A.** The value was 100.

**Q.** And the “Plant response rating, Pigweed” value [12, 18]?
**A.** Its value is 80.

**Q.** What about the “Crabgrass, Large plant response rating” value ([13]; 62 g ai/ha, scale 0 to 100) of the same compound?
**A.** Its value is 100.

**Q.** And the “Plant response rating, Crabgrass, Large” value [13, 18]?
**A.** The value was 85.

**Q.** What about the “Plant response rating (0 to 100), Crabgrass, Large” value ([13]; 250 g ai/ha) of the same compound?
**A.** The value was 100.

**Q.** And the “Crabgrass, Large plant response rating” value [14, 21]?
**A.** Its value is 40.

**Q.** What about the “Crabgrass, Large plant response rating” value [14, 22] of the same compound?
**A.** Its value is 80.

**Q.** And the “Crabgrass, Large plant response rating” value [14, 23]?
**A.** The value was 80.

**Q.** And the “Plant response rating, Crabgrass, Large” value [14, 24]?
**A.** The value was 100.

**Q.** And the “Plant response rating, Barnyardgrass” value [15, 18]?
**A.** The value was 0.

**Q.** And the “Plant response rating, Barnyardgrass” value [15, 19]?
**A.** Its value is 0.

**Q.** What about the “Plant response rating, Barnyardgrass” value [15, 20] of the same compound?
**A.** The value was 30.

**Q.** What about the “Plant response rating, Barnyardgrass” value ([15]; 250 g ai/ha, scale 0 to 100 (0 no effect, 100 complete control)) of the same compound?
**A.** The value was 70.

**Q.** What about the “Foxtail, Giant plant response rating” value [16, 21] of the same compound?
**A.** Its value is 50.

**Q.** What about the “Foxtail, Giant plant response rating” value [16, 22] of the same compound?
**A.** The value was 80.

**Q.** And the “Foxtail, Giant plant response rating” value [16, 23]?
**A.** Its value is 80.

**Q.** What about the “Plant response rating, Foxtail, Giant” value [16, 24] of the same compound?
**A.** The value was 100.

**Q.** What about the “Ryegrass, Italian plant response rating” value ([17]; 62 g ai/ha, scale 0 to 100) of the same compound?
**A.** Its value is 60.

**Q.** What about the “Plant response rating, Ryegrass, Italian” value [17, 18] of the same compound?
**A.** The value was 30.
